From PMC12259270, “Sensory neuron–expressed FGF13 controls nociceptive signaling in diabetic neuropathy models” (The Journal of Clinical Investigation, 2025)
Residues, ends and D or L forms follow the SMILES beside them. *: point of attachment. Cbz = O=C(OCc1ccccc1)*; NHPh = c1ccc(N*)cc1; OtBu = CC(C)(C)O*

Tested on: Na+ currents in hIPSC-derived sensory neurons (RealDRG)
Test: Whole-cell voltage clamp, hIPSC-derived sensory neurons (RealDRG) with Nav1.7 blocker ProTx-II
Assay type: cell-based, human
Details: for Activation / Peak Density / Steady-State inactivation / Tau (τ) / Long-term inactivation, 2nd Pulse / Long-term inactivation, 3rd Pulse / Long-term inactivation, 4th Pulse: RealDRG
Procedure: Next, we conducted whole-cell patch-clamp electrophysiological recordings in hIPSC-derived sensory neurons under three conditions: unstimulated and treated with 0.07% ethanol (capsaicin vehicle), treated with capsaicin (100 nM, 10 minutes), and treated with capsaicin plus SB-366791 (10 μM), a selective TRPV1 inhibitor. Each group was exposed to either vehicle (0.01% DMSO) or PW164 (50 μM), with all recordings performed in the presence of the Nav1.8 blocker A-803467 (300 nM) ([41]). The experimental groups are color coded in Figure 2A. Capsaicin caused potentiation of INa (Figure 2A) and induced hyperpolarizing shifts in the V1/2 of activation (Figure 2B) and SSI (Figure 2C). […] Next, we investigated whether silencing FGF13 could replicate PW164’s effects and prevent additional activity of the compound. hIPSC-derived sensory neurons were transfected with a previously validated pAAV-shFGF13-GFP construct ([42]) (Supplemental Figure 8). […] Neither PW164 nor FGF13 silencing affected Na+ currents in neurons transfected with pAAV-shCTRL-GFP or pAAV-shFGF13-GFP, whether unstimulated or treated with capsaicin in the presence of ProTx II (Supplemental Figure 9 and Supplemental Table 6). Thus, PW164 selectively modulated FGF13-dependent Na^+ current sensitization via TRPV1, with FGF13 silencing mimicking and validating PW164’s effect. […]
Whole-cell patch clamp electrophysiology
HEK293-Nav1.7 cells, HEK293 stably expressing human Nav1.6 (HEK-Nav1.6), HEK293 stably expressing human Nav1.5 (HEK-Nav1.5), human hIPSC-derived sensory neurons (RealDRGTM from Anatomic Incorporated 1020F1-1M) and donor-derived DRG neurons were plated at low density on glass coverslips and processed for whole-cell patch clamp electrophysiology in voltage-clamp and/or current clamp mode. Whole-cell patch electrophysiological experiments were conducted following previously published studies (26). Current densities were obtained by dividing INa amplitude by membrane capacitance. Current –voltage relationships were generated by plotting current density as a function of the […]. Conductance (G Na) was calculated by the […]
where INa is the current amplitude at voltage Vm, and Erev is the Na+ reversal potential.
Activation curves were derived by plotting normalized GNa as a function of test potential and fitted using […]
Where GNa,Max is the maximum conductance, Va is the membrane potential of half-maximal activation, Em is the membrane voltage and k is the slope factor. For steady -state inactivation, normalized current amplitude (INa/INa,Max) at the test potential was plotted as a function of prepulse potential (Vm) and fitted using the […]
Where Vh is the potential of half-maximal inactivation, E m is the membrane voltage, and k is the slope factor.
Transient INa inactivation decay was estimated with the standard exponential equation. Inactivation time constant (tau, τ) was fitted with the following equation: […]
where I(t) is the amplitude of the current at time t and Iss is the steady-state current during a single voltage-step.
The goodness of fitting was determined by correlation coefficient (R), and the cutoff of R was set at 0.85. To observe effects on long-term inactivation (LTI), a four-step protocol was employed during which cells were subjected to four 0 mV, 20 ms depolarization pulses separated by −90 mV, 40 ms recovery intervals. To control for various cell sizes, the current densities were calculated by dividing INa peak current amplitude/membrane capacitance (Cm). To represent the fraction of channels entering into LTI, the peak INa observed during depolarization cycles 2-4 was normalized to the peak INa observed during depolarization cycle 1 (INa/INa,Cycle 1) and plotted as a function of the depolarization cycle.
The cumulative (frequency-dependent) use-dependency was determined by applying 20 pulses with a depolarization to −10 mV (50 ms duration) and 50 ms recovery intervals with a train of 20 pulses at 10 Hz from a holding potential at -70 mV. […]

[1] = + Nav1.7 blocker ProTx-II, Cap+ - PW164
[2] = + Nav1.7 blocker ProTx-II, Cap+ PW164
[3] = + Nav1.7 blocker ProTx-II, Naïve + PW164
[4] = + Nav1.7 blocker ProTx-II, Naïve - PW164
[5] = + Nav1.7 blocker ProTx-II, Naive + ZL192
[6] = + Nav1.7 blocker ProTx-II, Naïve + ZL192

## COC(=O)[C@@H](NC(=O)[C@H](CCC(=O)OC(C)(C)C)NC(=O)[C@H](CC(C)C)NC(=O)[C@@H]1CCCN1C(=O)OCc1ccccc1)C(C)C [PW164] (Cbz-PLE(OtBu)V-OMe)
ProTx-II 10 nM, Suppl Fig 7
  effect on capsaicin-potentiated Na+ currents with ProTx-II: does not have any effect
[1]
  Activation: −29.15 ± 0.86 mV
  Peak Density: −80.16 ± 8.05 pA/pF
  Steady-State inactivation: −61.95 ± 1.29 mV
  Tau (τ): 0.98 ± 0.08 ms
[2]
  Long-term inactivation, 2nd Pulse: −118.43 ± 3.81 % maximal Na+ current
  Long-term inactivation, 3rd Pulse: −120.42 ± 4.69 % maximal Na+ current
[3]
  Long-term inactivation, 2nd Pulse: −105.72 ± 2.72 % maximal Na+ current
  Long-term inactivation, 3rd Pulse: −110.76 ± 2.72 % maximal Na+ current
  Long-term inactivation, 4th Pulse: −113.94 ± 3.54 % maximal Na+ current
[4]
  Activation: −29.68 ± 1.17 mV
  Peak Density: −76.99 ± 6.01 pA/pF
  Steady-State inactivation: −61.23 ± 1.29 mV
  Tau (τ): 0.87 ± 0.04 ms

## CC(=O)N[C@@H](Cc1ccccc1)C(=O)N[C@@H](CC(C)C)C(=O)N1CCC[C@H]1C(=O)N[C@@H](CCCCN)C(=O)Nc1ccccc1 [ZL192] (Ac-FLPK-NHPh)
Control cells, pulse 1
  UseDependency (Suppl. Figure S14D): 1
Control cells, pulse 3
  UseDependency (Suppl. Figure S14D): 0.9097
Control cells, pulse 5
  UseDependency (Suppl. Figure S14D): 0.8784
Control cells, pulse 10
  UseDependency (Suppl. Figure S14D): 0.8714
Control cells, pulse 15
  UseDependency (Suppl. Figure S14D): 0.8646
Control cells, pulse 20
  UseDependency (Suppl. Figure S14D): 0.8556
Naive cells, pulse 1
  UseDependency (Suppl. Figure S14D): 1
Naive cells, pulse 3
  UseDependency (Suppl. Figure S14D): 0.9097
Naive cells, pulse 5
  UseDependency (Suppl. Figure S14D): 0.8778
Naive cells, pulse 10
  UseDependency (Suppl. Figure S14D): 0.8143
Naive cells, pulse 15
  UseDependency (Suppl. Figure S14D): 0.7732
Naive cells, pulse 20
  UseDependency (Suppl. Figure S14D): 0.7489
[5]
  Activation: −27.64 ± 0.93 mV
  Peak Density: −96.53 ± 4.85 pA/pF
  Steady-State inactivation: −59.34 ± 1.61 mV
  Tau (τ): 1.33 ± 0.06 ms
[6]
  Long-term inactivation, 2nd Pulse: −99.26 ± 0.91 % maximal Na+ current
  Long-term inactivation, 3rd Pulse: −100.38 ± 1.08 % maximal Na+ current
  Long-term inactivation, 4th Pulse: −100.45 ± 1.3 % maximal Na+ current
+ ProTx-II, Control + ZL192
  Activation: −30.93 ± 0.89 mV
  Long-term inactivation, 2nd Pulse: −98.61 ± 0.74 % maximal Na+ current
  Long-term inactivation, 3rd Pulse: −99.17 ± 0.84 % maximal Na+ current
  Long-term inactivation, 4th Pulse: −98.95 ± 1.01 % maximal Na+ current
  Peak Density: −101.87 ± 5.35 pA/pF
  Steady-State inactivation: −53.15 ± 0.91 mV
  Tau (τ): 1.0 ± 0.04 ms
+ ProTx-II, Sh + ZL192
  Activation: −28.74 ± 1.12 mV
  Peak Density: −99.91 ± 8.28 pA/pF
  Steady-State inactivation: −62.97 ± 1.64 mV
  Tau (τ): 1.27 ± 0.08 ms
+ ProTx-II, Sh + Zl192
  Long-term inactivation, 2nd Pulse: −96.65 ± 1.81 % maximal Na+ current
  Long-term inactivation, 3rd Pulse: −97.25 ± 2.18 % maximal Na+ current
  Long-term inactivation, 4th Pulse: −99.23 ± 3.28 % maximal Na+ current
ShFGF13 cells, pulse 1
  UseDependency (Suppl. Figure S14D): 1
ShFGF13 cells, pulse 3
  UseDependency (Suppl. Figure S14D): 0.9541
ShFGF13 cells, pulse 5
  UseDependency (Suppl. Figure S14D): 0.9361
ShFGF13 cells, pulse 10
  UseDependency (Suppl. Figure S14D): 0.8879
ShFGF13 cells, pulse 15
  UseDependency (Suppl. Figure S14D): 0.8614
ShFGF13 cells, pulse 20
  UseDependency (Suppl. Figure S14D): 0.8526
ZL192 50 μM, ProTx-II 10 nM, Suppl Fig 14
  activity on Na+ currents with ProTx-II: no activity
